According to US11130762B2, “Azaaryl derivative, preparation method therefor, and application thereof for use in pharmacy” (Abbisko Therapeutics Co., Ltd., priority 2017, dated 2021):

Experiments:
[1] = system: NCI-H1703 human non-small cell lung squamous carcinoma cells; assay: Cell proliferation (Cell Titer Glo), NCI-H1703 cells (PDGFRA); format: cell-based; details: 72 h, 3 days, CTG, * = average of multiple tests, read-out: Cytological experiment PDGFRA IC50
Experimental: (§1) D. CSF-1R-Related Cell Proliferation Experiment
(§2) Functional effects of compounds on the proliferation of several cell lines were evaluated by Cell Titer Glo (CTG) studies in the present invention, and effects of the compounds on the proliferation of different cells were evaluated to determine the selectivity degree of the compounds. In the experiment, M-07e human cytomegalic leukemia cells (cat. No. CBP60791) from Nanjing Kebai Biotechnology Co., Ltd. were cultured in an incubator under conditions of RPMI1640 (Gibco, cat. No. 11875-119), 20% fetal bovine serum (Gibco, 10099-141), human 10 ng/mL GM-CSF granulocyte macrophage colony-stimulating factors (R&D, cat. No. 215-GM-010), 37° C., and 5% CO2; and Kasumi-1 human acute myeloblastic leukemia cells (cat. No. CBP60524) were cultured in an incubator under conditions of RPMI1640 (Gibco, cat. No. 11875-119), 20% fetal bovine serum (Gibco, 10099-141), 37° C., and 5% CO2: NCI-H1703 human non-small cell lung squamous carcinoma cells (cat. No. CBP60115) were cultured in an incubator under conditions of RPMI1640 (Gibco, cat. No. 11875-119), 10% fetal bovine serum (Gibco, 10099-141), 37° C., and 5% CO2; MV-4-11 human acute monocytic leukemia cells (cat. No. CBP60522) were cultured in an incubator under conditions of IMDM (Invitrogen, cat. No. 12440053), 20% fetal bovine serum (Gibco, 10099-141), 37° C., and 5% CO2. Since ATP is an index for viable cell metabolism, CTG (Promega, #G7573) reagent is a homogeneous detection method for detecting the number of viable cells in the culture by quantifying ATP. Therefore, compound-mediated inhibition for cell proliferation/survival was evaluated by quantifying ATP content in cells, and the specific experimental process was as follows.
II) NCI-H1703 Human Non-Small Cell Lung Squamous Carcinoma Cell
1. The cells were inoculated into a tissue-culture-medium-treated 96-well plate (Costar #3904) with 5000 cells/well/90 μL fresh culture medium, and cultured for 24 hrs;
(§3) 2. the next day, 10 μL of culture medium containing testing compound with 10-fold of final concentration was added to each well:
3. the dosage effect was evaluated by testing 3-fold serial dilutions of the compound, which started from 18 μM;
4. after the cells were incubated for 3 days at 37° C. and 5% CO2, the inhibition on cell survival was quantified after 50 μL of CTG was added and the luminescence assay was performed:
5. the compound concentration leading to half maximal inhibitory (IC50) and the compound concentration leading to absolute half maximal inhibitory (Absolute IC50) were measured by a plate reader (M1000, Tecan) and a four-parameter curve fit in Graphpad Prism 7.

KIT kinase = KIT kinase (Homo sapiens, UniProt P10721); assay: KIT in vitro biochemical kinase study (Caliper EZ Reader); details: Caliper mobility shift; read-out: Enzymatic experiment KIT IC50
Sequence of KIT kinase (P10721 26-976): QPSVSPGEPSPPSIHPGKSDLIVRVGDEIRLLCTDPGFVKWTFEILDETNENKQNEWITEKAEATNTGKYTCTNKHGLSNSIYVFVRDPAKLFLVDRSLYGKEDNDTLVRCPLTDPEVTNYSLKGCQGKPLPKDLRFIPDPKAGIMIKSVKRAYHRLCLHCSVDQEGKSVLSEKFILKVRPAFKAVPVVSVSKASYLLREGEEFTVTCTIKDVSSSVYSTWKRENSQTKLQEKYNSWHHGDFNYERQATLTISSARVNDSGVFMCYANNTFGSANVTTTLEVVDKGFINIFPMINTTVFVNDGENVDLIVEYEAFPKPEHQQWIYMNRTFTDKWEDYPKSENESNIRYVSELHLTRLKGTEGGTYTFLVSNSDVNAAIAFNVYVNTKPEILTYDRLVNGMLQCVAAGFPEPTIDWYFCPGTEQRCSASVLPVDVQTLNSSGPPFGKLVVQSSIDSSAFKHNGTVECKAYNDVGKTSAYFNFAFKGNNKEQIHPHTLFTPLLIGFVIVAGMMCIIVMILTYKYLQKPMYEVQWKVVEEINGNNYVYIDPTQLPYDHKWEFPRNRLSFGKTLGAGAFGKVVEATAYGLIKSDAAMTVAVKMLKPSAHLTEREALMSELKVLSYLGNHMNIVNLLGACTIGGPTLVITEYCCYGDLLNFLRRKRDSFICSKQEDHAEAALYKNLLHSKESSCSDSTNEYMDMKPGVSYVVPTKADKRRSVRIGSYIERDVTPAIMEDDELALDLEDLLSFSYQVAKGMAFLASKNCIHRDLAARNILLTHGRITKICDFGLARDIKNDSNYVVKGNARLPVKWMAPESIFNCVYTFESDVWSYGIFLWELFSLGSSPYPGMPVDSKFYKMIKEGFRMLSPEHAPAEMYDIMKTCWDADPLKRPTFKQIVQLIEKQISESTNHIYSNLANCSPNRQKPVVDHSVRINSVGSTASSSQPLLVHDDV
Experimental: (§4) B. KIT/PDGFRA In Vitro Biochemical Kinase Study
(§5) 1. Preparation of 1-Fold Kinase Buffer and Stop Solution
(§6) 1.2 stop solution: 100 mM HEPES, pH 7.5, 0.015% Brij-35, 0.2% Coating Reagent #3, 50 mM EDTA
(§7) 2. Preparation of Compound Solution
(§8) 2.1 Dilution of Compound Solution
(§9) 1) The final concentration of the compound solution was 40 μM, and the concentration of the prepared stock solution was 50 times of the final concentration, i.e., 2 mM.
(§10) 2) 80 μL of 100% DMSO was added to the second well of the 96-well plate, then 20 μL of 10 mM compound solution was added, and thereby 2 mM compound solution was prepared, 60 μL of 100% DMSO was added to other wells, 20 μL of compound was taken from the second well, added to the third well and diluted by 4 times. This serial 4-time dilution was conducted in sequence for the total of 10 concentrations.
(§11) 2.2 5-Fold Compound Solution Transferred to a Reaction Plate
(§12) 1) 10 μL of solution was taken from each well of the above 96-well plate and added to another 96-well plate, and 90 μL of kinase buffer was added.
(§13) 2) 5 μL of solution was taken from the above 96-well plate and added to a 384-well reaction plate.
(§14) 1) KIT/PDGFRA kinase was added to the 1-fold kinase buffer solution to obtain a 2.5-fold kinase solution.
(§15) 2) FAM-labeled polypeptide and ATP were added to the 1-fold kinase buffer solution to obtain a 2.5-fold substrate solution.
(§16) 3) 10 μL of 2.5-fold kinase solution was added to the 384-well reaction plate, which already contained 5 μL of 5-fold compound in 10% DMSO. And the mixed solution was incubated at room temperature for 10 min.
(§17) 4) 10 μL of 2.5-fold substrate solution was added to the 384-well reaction plate.
(§18) 5) Kinase reaction and termination: the mixed solution was incubated at 28° C. for a certain period of time, and 25 μL of stop solution was added to stop the reaction.
(§19) 2.4 Data Reading of Caliper EZ Reader II
(§20) 2.5 Calculation of Percent Inhibition and IC50
(§21) 1) Percent conversion data were copied from the Caliper EZ Reader. […]

PDGFRA kinase = PDGFRA kinase (Homo sapiens, UniProt P16234); assay: PDGFRA in vitro biochemical kinase study (Caliper EZ Reader); details: Caliper mobility shift; read-out: Enzymatic experiment PDGFRA IC50
Sequence of PDGFRA kinase (P16234 24-1089): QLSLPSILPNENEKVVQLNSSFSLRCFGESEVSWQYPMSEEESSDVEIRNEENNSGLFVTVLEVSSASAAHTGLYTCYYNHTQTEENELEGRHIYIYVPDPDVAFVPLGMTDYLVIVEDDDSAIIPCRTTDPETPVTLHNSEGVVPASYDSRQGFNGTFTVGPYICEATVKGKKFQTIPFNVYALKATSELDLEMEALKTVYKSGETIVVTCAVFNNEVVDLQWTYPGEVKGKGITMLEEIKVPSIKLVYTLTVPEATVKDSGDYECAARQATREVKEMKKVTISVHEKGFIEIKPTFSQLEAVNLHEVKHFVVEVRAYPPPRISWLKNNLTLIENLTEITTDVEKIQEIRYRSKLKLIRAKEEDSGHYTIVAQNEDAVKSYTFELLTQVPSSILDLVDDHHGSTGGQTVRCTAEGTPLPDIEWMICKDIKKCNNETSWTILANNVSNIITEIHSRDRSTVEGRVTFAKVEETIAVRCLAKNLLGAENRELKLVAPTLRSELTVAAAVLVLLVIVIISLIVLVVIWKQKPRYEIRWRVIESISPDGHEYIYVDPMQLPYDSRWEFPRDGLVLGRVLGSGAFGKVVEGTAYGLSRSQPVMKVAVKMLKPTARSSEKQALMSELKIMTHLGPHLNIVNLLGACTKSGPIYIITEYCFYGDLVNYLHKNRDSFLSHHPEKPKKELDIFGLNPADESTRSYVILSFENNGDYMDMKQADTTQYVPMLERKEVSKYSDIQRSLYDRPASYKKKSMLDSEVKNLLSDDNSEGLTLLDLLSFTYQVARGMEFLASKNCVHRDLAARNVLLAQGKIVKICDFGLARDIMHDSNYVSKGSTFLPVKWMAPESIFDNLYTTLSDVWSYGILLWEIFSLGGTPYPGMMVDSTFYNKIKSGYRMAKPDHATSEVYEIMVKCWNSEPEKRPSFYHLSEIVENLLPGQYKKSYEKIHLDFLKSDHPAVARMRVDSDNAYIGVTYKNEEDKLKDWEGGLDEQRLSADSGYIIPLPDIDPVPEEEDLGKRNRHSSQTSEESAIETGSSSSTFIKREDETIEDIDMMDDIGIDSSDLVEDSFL
Experimental: as §4, §5, §6, §7, §8, §9, §10, §11, §12, §13, §14, §15, §16, §17, §18, §19, §20, §21

[2] = system: M-07e human cytomegalic leukemia cells; assay: Cell proliferation (Cell Titer Glo), M-07e cells with SCF (KIT); format: cell-based; details: 72 h, 3 days, CTG, * = average of multiple tests, read-out: Cytological experiment KIT IC50
Experimental: as §1, §2
I) M-07e Human Cytomegalic Leukemia Cell:
1. The cells were plated into a tissue-culture-medium-treated 96-well plate (Costar #3904) with 3500 cells/well/80 μL fresh culture medium, and cultured for 24 hrs;
as §3
3. 10 μL of culture medium containing SCF recombinant human stem cell factor (R&D, cat. No. 7466-SC-010) with 10-fold of the final concentration was then added to each well;
4. the dosage effect was evaluated by testing 4-fold serial dilutions of the compound, which started from 18 μM;
5. after the cells were incubated for 3 days at 37° C. and 5% CO2, the inhibition on cell survival was quantified after 50 μL of CTG was added and the luminescence assay was performed;
6. the compound concentration leading to half maximal inhibitory (IC50) and the compound concentration leading to absolute half maximal inhibitory (Absolute IC50) were measured by a plate reader (M1000, Tecan) and a four-parameter curve fit in Graphpad Prism 7.

IC50 [1] [µM] | IC50 (KIT kinase) [nM] | IC50 (PDGFRA kinase) [µM] | IC50 [2] [nM] | SMILES
> 18 | 365 | 9.31 | > 2000 | Cc1nc(-c2cnc3n(c2=O)CCCN3C)ccc1Oc1ccnc(-c2cnn(C)c2)c1 [Example 1, 9-methyl-3-(6-methyl-5-((2-(1-methyl-1H-pyrazol-4-yl)pyridin-4-yl)oxy)pyridin-2-yl)-6,7,8,9-tetrahydro-4H-pyrimido[1,2-a]pyrimidin-4-one]
> 2 | 20.5 | 0.757 | 436 | CCN1CCCn2c1ncc(-c1ccc(Oc3ccnc(-c4cnn(C)c4)c3)c(C)n1)c2=O [Example 4]
